The conditions of data set [1]: for Limit solubilities after 48 h at 20° C.; measured by Q 1H NMR: 4-aminoindacene (level of hydrolytic precursor measured in solution): 50 mg/ml.
Experimental: (§1) Crystalline 1-ethyl-N-((1,2,3,5,6,7-hexahydro-s-indacen-4-yl)carbamoyl)piperidine-4-sulfonamide salts (50 mg, 1 wt.) or crystalline 1-ethyl-N-((1,2,3,5,6,7-hexahydro-s-indacen-4-yl)carbamoyl)piperidine-4-sulfonamide free acid (as a control) (50 mg, 1 wt.) were stirred in purified water (1000 μl, 20 vol.) at 20° C. Limit solubilities (mg/ml) were determined after 48 hours at 20° C. measured by Q ^1H NMR (measured against an internal standard, 2,3,5,6-tetrachloronitrobenzene).
Data set [2] can be described thus: General assessment of polymorph solubility and stability to water/humidity. The class given is physicochemical.
Data set [3] can be described thus: Solubility determinations: limit solubility in purified water by Q 1H NMR.
Experimental: as §1
A short description of data set [4]: Competitive suspension equilibration of Form A and Form D in anhydrous acetonitrile. The class given is physicochemical. To be noted: versus Form D, 20° C. or 40° C., 96 hours. The protocol:
Form A (50 mg, 1 wt.) and Form D (amounts see Table 16) were charged to a vial and anhydrous acetonitrile (1000 μl, 20 vol.) was added. The vials were stirred at 20° C. or 40° C.for 96 hours.

Data set [5] in a line: Mechanical grinding of Form A, XRPD analysis. Particulars: ground for 24 hours. Format: physicochemical. The protocol: Form A (50.4 mg) was ground for 24 hours. The product was recovered and analysed by XRPD to determine if any phase changes had occurred.
Data set [6] in a line: Water content / hygroscopicity of polymorphs. The class given is physicochemical.

This is an account of results in patent US20240208904A1, “CRYSTALLINE POTASSIUM SALT OF 1-ETHYL- N -((1,2,3,5,6,7-HEXAHYDRO- S -INDACEN-4-YL)CARBAMOYL)PIPERIDINE-4 -SULFONAMIDE” (Hoffmann-La Roche Inc., priority 2021, published 2024).

In general, solubility refers to the dissolved amount per volume that the medium holds.

The structures appear in SMILES notation. “Also recorded” adds a separate entry of the source.

Regarding `CCN1CCC(S(=O)(=O)NC(=O)Nc2c3c(cc4c2CCC4)CCC3)CC1` [Form 3G, 1-ethyl-N-((1,2,3,5,6,7-hexahydro-s-indacen-4-yl)carbamoyl)piperidine-4-sulfonamide], in data set [1], the “Limit solubilities after 48 h at 20° C.; measured by Q 1H NMR: Free acid form equivalent” value (shortened to “Limit solubilities … Free acid form equivalent”) came out at 1.5 mg/mL and the “Limit solubilities after 48 h at 20° C.; measured by Q 1H NMR: 4-aminoindacene (level of hydrolytic precursor measured in solution)” value was 0.5 mg/mL.
For `CCN1CCC(S(=O)(=O)NC(=O)Nc2c3c(cc4c2CCC4)CCC3)CC1` [Form 3B, 1-ethyl-N-((1,2,3,5,6,7-hexahydro-s-indacen-4-yl)carbamoyl)piperidine-4-sulfonamide] the same measures were 6.3 mg/mL and 0.0 mg/mL.
With `CCN1CCC(S(=O)(=O)NC(=O)Nc2c3c(cc4c2CCC4)CCC3)CC1.[K]` [Form D, 1-Ethyl-N-((1,2,3,5,6,7-hexahydro-s-indacen-4-yl)carbamoyl)piperidine-4-sulfonamide Monopotassium Form D], the “Stability in the presence of water” value in data set [2] (water as solvent or co-solvent or humidity (such as >30% RH at 25° C.)) is recorded as “stable in the presence of water”.
In the case of `CCN1CCC(S(=O)(=O)NC(=O)Nc2c3c(cc4c2CCC4)CCC3)CC1` [Form 3J, 1-ethyl-N-((1,2,3,5,6,7-hexahydro-s-indacen-4-yl)carbamoyl)piperidine-4-sulfonamide], in data set [1], the “Limit solubilities … Free acid form equivalent” value was 0.0 mg/mL and the “Limit solubilities after 48 h at 20° C.; measured by Q 1H NMR: 4-aminoindacene (level of hydrolytic precursor measured in solution)” value was 0.1 mg/mL.
For `CCN1CCC(S(=O)(=O)NC(=O)Nc2c3c(cc4c2CCC4)CCC3)CC1` [Form 3D, 1-ethyl-N-((1,2,3,5,6,7-hexahydro-s-indacen-4-yl)carbamoyl)piperidine-4-sulfonamide], the solubility at 48 h in data set [3] (purified water, 20 °C, water, thermodynamic from solid, Limit solubilities after 48 h at 20° C., measured by Q 1H NMR: Free acid form equivalent, 50 mg in purified water 1000 μl (20 vol.), 20° C., 48 h) stood at 3900 µg/mL. For the same compound, the “Observation at 18 hours” value in data set [3] (stirred in purified water (20 vol.) at 20° C., 18 hours) is “suspension”.
Turning to `CCN1CCC(S(=O)(=O)NC(=O)Nc2c3c(cc4c2CCC4)CCC3)CC1` [Form 3H, 1-ethyl-N-((1,2,3,5,6,7-hexahydro-s-indacen-4-yl)carbamoyl)piperidine-4-sulfonamide], in data set [1], the “Limit solubilities … Free acid form equivalent” value was 0.6 mg/mL and the “Limit solubilities after 48 h at 20° C.; measured by Q 1H NMR: 4-aminoindacene (level of hydrolytic precursor measured in solution)” value was found to be 0.0 mg/mL.
For `CCN1CCC(S(=O)(=O)NC(=O)Nc2c3c(cc4c2CCC4)CCC3)CC1` [Form 3A, 1-ethyl-N-((1,2,3,5,6,7-hexahydro-s-indacen-4-yl)carbamoyl)piperidine-4-sulfonamide] the same measures were 38.0 mg/mL and 0.0 mg/mL.
The matching figures for `CCN1CCC(S(=O)(=O)NC(=O)Nc2c3c(cc4c2CCC4)CCC3)CC1` [Form 3C, 1-ethyl-N-((1,2,3,5,6,7-hexahydro-s-indacen-4-yl)carbamoyl)piperidine-4-sulfonamide]: 4.5 mg/mL and 2.6 mg/mL.
In the case of `CCN1CCC(S(=O)(=O)NC(=O)Nc2c3c(cc4c2CCC4)CCC3)CC1.[K]` [Form A, 1-Ethyl-N-((1,2,3,5,6,7-hexahydro-s-indacen-4-yl)carbamoyl)piperidine-4-sulfonamide Monopotassium Form A], in data set [4], the “Thermodynamic stability of polymorphic form” value is “more thermodynamically stable polymorphic form; also recorded: thermodynamically stable”. In addition, the “Phase change after grinding (XRPD)” value in data set [5] was “no significant change of polymorphic form; also recorded: stable to prolonged grinding conditions”. Further, in data set [2], the “Solubility (qualitative)” value is “good solubility”. For the same compound, the Hygroscopicity entry in data set [6] is recorded as “hygroscopic”. Moreover, in data set [6] (depends on preparation and storage conditions), the Non-assimilated water observed entry is “up to 3%”.
For the compound `CCN1CCC(S(=O)(=O)NC(=O)Nc2c3c(cc4c2CCC4)CCC3)CC1` [Form 3I, 1-ethyl-N-((1,2,3,5,6,7-hexahydro-s-indacen-4-yl)carbamoyl)piperidine-4-sulfonamide], in data set [1], the “Limit solubilities … Free acid form equivalent” value is 0.3 mg/mL and the “Limit solubilities after 48 h at 20° C.; measured by Q 1H NMR: 4-aminoindacene (level of hydrolytic precursor measured in solution)” value was found to be 0.0 mg/mL.
The matching figures for `CCN1CCC(S(=O)(=O)NC(=O)Nc2c3c(cc4c2CCC4)CCC3)CC1` [Form 3E, 1-ethyl-N-((1,2,3,5,6,7-hexahydro-s-indacen-4-yl)carbamoyl)piperidine-4-sulfonamide]: 3.3 mg/mL and 0.8 mg/mL.
Take `CCN1CCC(S(=O)(=O)NC(=O)Nc2c3c(cc4c2CCC4)CCC3)CC1` [Form 3F, 1-ethyl-N-((1,2,3,5,6,7-hexahydro-s-indacen-4-yl)carbamoyl)piperidine-4-sulfonamide]: in data set [1], the “Limit solubilities … Free acid form equivalent” value worked out at 2.1 mg/mL and the “Limit solubilities after 48 h at 20° C.; measured by Q 1H NMR: 4-aminoindacene (level of hydrolytic precursor measured in solution)” value came to 0.8 mg/mL.
